Measurements from ChEMBL document CHEMBL4706756, “Combination Therapy of RNA Interference and Small Molecules for Treating Hepatitis B Virus Infection” (ACS Med Chem Lett, 2021).
Activity calls are given as the source filed them. The calls are words filed in the database; no cut-off is given here.

Tests used:
Hepatitis B virus [1] = assay: Antiviral activity against HBV infected in CHB patient assessed as reduction in HBsAg level at 250 mg, po administered daily from 1 to 84 days in presence of RNAi component and NA relative to control; assay type: functional; set-up: scale not given: the % may be the effect or the level left; conditions: time 1-84 day
Hepatitis B virus [2] = assay: Antiviral activity against HBV infected in CHB patient assessed as reduction in viral DNA level at 250 mg, po administered daily from 1 to 84 days in presence of RNAi component and NA; assay type: functional, organism-based; conditions: time 1-84 day
Hepatitis B virus [3] = assay: Antiviral activity against HBV infected in CHB patient assessed as reduction in viral RNA level at 250 mg, po administered daily from 1 to 84 days in presence of RNAi component and NA; assay type: functional, organism-based; conditions: time 1-84 day
Hepatitis B virus [4] = assay: Antiviral activity against HBV infected in CHB patient assessed as reduction in HBeAg level at 250 mg, po administered daily from 1 to 84 days in presence of RNAi component and NA; assay type: functional, organism-based; conditions: time 1-84 day
Hepatitis B virus [5] = assay: Antiviral activity against HBV infected in CHB patient assessed as reduction in HBcrAg level at 250 mg, po administered daily from 1 to 84 days in presence of RNAi component and NA; assay type: functional, organism-based; conditions: time 1-84 day
Hepatitis B virus [6] = assay: Antiviral activity against HBV infected in HBeAg-positive CHB patient assessed as reduction in HBsAg level at 250 mg, po administered daily from 1 to 84 days in presence of RNAi component and NA; assay type: functional, organism-based; conditions: time 1-84 day
Hepatitis B virus [7] = assay: Antiviral activity against HBV infected in HBeAg-negative CHB patient assessed as reduction in HBsAg level at 250 mg, po administered daily from 1 to 84 days in presence of RNAi component and NA; assay type: functional, organism-based; conditions: time 1-84 day
[8] = Toxicity in HBV infected CHB patient at 250 mg, po administered daily from 1 to 84 days in presence of RNAi component and NA; assay type: organism-based; conditions: human, in vivo, time 1-84 day

For `C[C@H](NS(=O)(=O)c1cc(C(=O)Nc2ccc(F)c(C#N)c2)n(C)c1)C(F)(F)F` [BERSACAPAVIR], the Activity (Hepatitis B virus [1]) was 90%, the Activity (Hepatitis B virus [2]) was “Active” and the Activity (Hepatitis B virus [3]) was “Active”. The Activity (Hepatitis B virus [4]) was “Active”, the Activity (Hepatitis B virus [5]) was “Active” and the Activity (Hepatitis B virus [6]) was “Active”. The Activity (Hepatitis B virus [7]) was “Active” and the Activity [8] was “Non-Toxic”.
